Results as given in publication PMC5904360, “Soluble N-Ethylmaleimide-Sensitive Factor Attachment Protein Receptor-Derived Peptides for Regulation of Mast Cell Degranulation” (Frontiers in Immunology, 2018).

How the values were obtained:
[1] = system: RBL-2H3 mast cells; assay: Degranulation assay, β-hexosaminidase release; type: cell-based, rat; conditions: for inhibition of mast cell degranulation with versus without A23187 pretreatment: PTD-conjugated peptides, read-outs β-hexosaminidase and histamine (Figure 4B); for reduction of β-hexosaminidase release: 10 µM PTD-fused peptide without SLO (LY294002 as positive control), DNP-BSA stimulation, no A23187 pretreatment, three independent experiments (Figure 2A gray bars, 2C); for inhibition of β-hexosaminidase release after A23187 pretreatment: cells pretreated with A23187, sensitized with DNP-IgE, then PTD-conjugated peptide (Figure 4B)
[2] = target: T1, SN23-Syn4-Vp8 complex (Rattus norvegicus, UniProt O70377+Q08850+Q9WUF4); assay: Co-immunoprecipitation of SNARE complexes in activated RBL-2H3 cells, anti-SNAP-23 blot; type: cell-based; conditions: peptides added to the medium after A23187 pretreatment; IP of Vp8, blot anti-SNAP-23 (Figure 4C)
T1 construct: Lysates of RBL-2H3 cells; endogenous in cells; host or cells: RBL-2H3 (ATCC CRL-2256)
T1 sequence (Q08850 1-298): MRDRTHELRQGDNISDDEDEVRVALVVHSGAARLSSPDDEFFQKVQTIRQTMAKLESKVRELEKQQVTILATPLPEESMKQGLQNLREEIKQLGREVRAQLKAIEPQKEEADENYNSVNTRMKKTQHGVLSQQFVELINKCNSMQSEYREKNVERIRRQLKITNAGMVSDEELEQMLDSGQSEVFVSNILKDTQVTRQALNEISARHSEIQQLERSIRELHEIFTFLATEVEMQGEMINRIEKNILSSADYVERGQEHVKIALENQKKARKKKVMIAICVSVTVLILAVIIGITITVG
T1 sequence (O70377 1-210): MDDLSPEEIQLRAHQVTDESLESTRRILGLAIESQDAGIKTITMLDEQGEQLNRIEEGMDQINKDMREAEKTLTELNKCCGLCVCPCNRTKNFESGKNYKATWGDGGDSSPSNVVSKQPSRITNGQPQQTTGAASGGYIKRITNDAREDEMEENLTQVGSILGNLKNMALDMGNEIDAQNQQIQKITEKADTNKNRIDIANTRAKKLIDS
T1 sequence (Q9WUF4 1-100): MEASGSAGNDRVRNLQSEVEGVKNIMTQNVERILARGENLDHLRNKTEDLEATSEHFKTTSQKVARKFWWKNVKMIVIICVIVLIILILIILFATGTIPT
Description: Lysates of RBL-2H3 cells (0.5–1 × 10^6 cells), which were obtained by the addition of 1 mL lysis buffer (50 mM Tris–HCl, 150 mM NaCl, 1% Triton X-100™, 1 mM EDTA, pH 7.5) supplemented with a protease inhibitor cocktail (Calbiochem®, Merck Millipore, Billerica, MA, USA), were centrifuged at 13,000 g at 4°C to remove cell debris and precleared with 100 µL protein G Sepharose® (GE Healthcare) for 2 h at 4°C. The precleared lysates were incubated with antibodies against SNARE proteins (Syn4, SNAP-23, VAMP2, and VAMP8) for 2 h at 4°C for binding, and then the antibody–antigen complexes were precipitated by incubation with a protein G slurry overnight with constant shaking. After an extensive washing step with lysis buffer, an immunoblotting analysis was performed for the precipitates. The immunoprecipitated proteins and cell lysates were electrophoresed on 12% sodium dodecyl sulfate-polyacrylamide gel electrophoresis gels and then transferred to nitrocellulose blotting membranes (GE Healthcare). After blocking the membranes in TBST (10 mM Tris–HCl, 150 mM NaCl, and 0.05% Tween® 20, pH 8) containing 0.5% BSA and 5% skim milk for 1 h at room temperature, primary anti-SNAP-23 antibody (1:1,000 dilution) in TBST supplemented with 1% BSA and 0.01% sodium azide was added and incubated at 4°C overnight. The membranes were washed with TBST, treated with a horseradish peroxidase-conjugated secondary anti-mouse IgG antibody (A4416, Sigma-Aldrich), and visualized using enhanced chemiluminescence solution for the development of a luminescent signal.

## EDEMEENLTQVGSILGN [SC23N, 17-mer peptide, N-terminal region of SNAP-23 SNARE motif SC23]
[1]
  inhibition of mast cell degranulation with versus without A23187 pretreatment: inhibited mast cell degranulation more efficiently than without pretreatment
[2]
  SNARE complex formation in cells (amount of SN23-Syn4-Vp8 complex): reduced

## LQSEVEGVKNIMTQNVE [Vp8N, 17-mer peptide, N-terminal region of VAMP8 SNARE motif]
[1]
  reduction of β-hexosaminidase release: 30–40%
  inhibition of mast cell degranulation with versus without A23187 pretreatment: inhibited mast cell degranulation more efficiently than without pretreatment
  inhibition of β-hexosaminidase release after A23187 pretreatment: inhibited both histamine and β-hexosaminidase release
[2]
  SNARE complex formation in cells (amount of SN23-Syn4-Vp8 complex): reduced

## SARHSEIQQLERTIREL [Syn4N, 17-mer peptide, N-terminal region of syntaxin 4 SNARE motif]
[1]
  reduction of β-hexosaminidase release: 30–40%
  inhibition of mast cell degranulation with versus without A23187 pretreatment: inhibited mast cell degranulation more efficiently than without pretreatment
  inhibition of β-hexosaminidase release after A23187 pretreatment: inhibited both histamine and β-hexosaminidase release
[2]
  SNARE complex formation in cells (amount of SN23-Syn4-Vp8 complex): reduced
